In brackets after ≈: the same amount, converted by molar mass.
Experiments:
[1] = system: B16-F10 murine melanoma cells; parameters: method as in PMID 22189272; conditions: cited from earlier work
tyrosinase = molecular target: tyrosinase; parameters: method as in earlier work; conditions: ref 13 (Bernard and Berthon); cited from earlier work
mushroom tyrosinase = mushroom tyrosinase (Agaricus bisporus, UniProt C7FF04); test: Tyrosinase inhibition qualitative enzymatic reaction screening; assay type: biochemical; conditions: second hour of assay; p > 0.05
Sequence of mushroom tyrosinase (C7FF04 1-392): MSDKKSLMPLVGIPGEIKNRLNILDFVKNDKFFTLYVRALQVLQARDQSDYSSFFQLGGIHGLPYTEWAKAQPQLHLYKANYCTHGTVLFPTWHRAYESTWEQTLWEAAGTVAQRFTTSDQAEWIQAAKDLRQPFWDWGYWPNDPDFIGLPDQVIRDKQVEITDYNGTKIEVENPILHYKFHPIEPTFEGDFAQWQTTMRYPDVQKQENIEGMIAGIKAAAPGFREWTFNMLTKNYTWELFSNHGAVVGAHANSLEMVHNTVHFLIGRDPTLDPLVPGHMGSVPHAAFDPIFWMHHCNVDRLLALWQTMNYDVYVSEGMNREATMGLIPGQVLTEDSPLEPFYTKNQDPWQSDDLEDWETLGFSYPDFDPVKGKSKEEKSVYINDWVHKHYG
Method: The ability to inhibit the activity of tyrosinase enzyme was evaluated using the enzymatic method described by Macrini et al., with modifications. This method relies on the inhibition of tyrosinase in the presence of its substrate tyrosine, interrupting the synthesis of melanin.
Aliquots (10 µL) of a solution composed of 125 U/mL of mushroom tyrosinase (Sigma-Aldrich, St. Louis, MO, USA) were added to 96-well microplates, and then pH 6.8 phosphate buffer solution (70 µL) and the analogs (60 µL, 350 µg/mL, in 2.5% DMSO) were also added. […] To the resultant mixture, L-tyrosine (70 µL, Sigma-Aldrich) at a concentration of 0.3 mg/mL in distilled water was added (final volume in the wells = 210 µL). The absorbances of the microplate wells were read on a spectrophotometric microplate reader (SpectraCount, Packard, Meriden, CT, USA) at 510 nm (T0). Then, the microplates were incubated at 30 ± 1 °C for 60 minutes and the absorbances were registered again (T1). An additional incubation for 60 minutes at 30 ± 1 °C was done and after this period a new spectrophotometric reading was conducted (T2). The inhibitory percentage at the two times (T1 and T2) was obtained according to the formula to inhibitory activity percentage as follows: [drawing 9] (1) Where IC% = inhibitory activity; C = negative control absorbance; S = sample or positive control absorbance (absorbance at time T1 or T2 minus the absorbance at time T0).

Compound	melting point [°C]	inhibitory ability compared with kojic acid (mushroom tyrosinase)	also measured
O=[N+]([O-])c1ccc(/C=N/c2ccccc2)cc1 [Analog C]	89.6 to 90.7	–	–
Oc1ccc(/C=C/c2cc(O)cc(O)c2)cc1 [resveratrol, Resveratrol]	–	–	cellular melanin production [1]: significantly suppressed; cytotoxicity (concentration without any cytotoxicity) [1]: > 200 µM; IC50 (tyrosinase inhibition) (tyrosinase): 57.05 µg/mL (≈ 250 µM)
Oc1ccc(/C=N/c2ccccc2)cc1 [Analog D]	–	statistically equal to that of kojic acid	–
COc1cc(/C=N/c2ccccc2)ccc1O [Analog F]	53.1 to 54.2	statistically equal to that of kojic acid	–
Oc1ccccc1/C=N/c1ccccc1 [Analog E]	–	statistically equal to that of kojic acid	–

— PMC6268222, “Inhibitory Effects of Resveratrol Analogs on Mushroom Tyrosinase Activity” (Molecules, 2012)
